{"source": "patent US4675395A", "about": "“Cyclodextrin inclusion compound and process for its preparation” (Seiwa Technological Laboratories Limited, priority 1985, dated 1987)", "key": {"[1]": {"details": "background statement; cited from earlier work"}, "physchem": {"assay": "physchem", "details": "water"}, "[2]": {"details": "cited from earlier work"}}, "data": [{"smiles": "CC(C)c1cccc(=O)c(O)c1", "note": "[hinokitiol]", "values": [{"measurement": "bactericidal and bacteriostatic activity", "setting": "[1]", "value": "strong"}, {"measurement": "solubility", "setting": "physchem", "value": "≤ 5", "unit": "mM"}, {"measurement": "solubility in water at 25° C.", "setting": "[2]", "value": "about 0.12%"}]}]}
